Source: US8507498B2, “4, 6-disubstituted aminopyrimidine derivatives as inhibitors of protein kinases” (Ingenium Pharmaceuticals GmbH, priority 2007, dated 2013)

How the values were obtained:
[1] = target: CDK4/CycD1 (Homo sapiens, UniProt P11802); experiment: General kinase assay (Example 80); type: biochemical; details: ATP 1 μM
Description: (§1) The inhibitory effect of compounds according to the present invention on the activity of protein kinases can be measured according to the following protocol: • Reaction Volume: 40 μl • Reaction Time: 60 min • Reaction Temperature: room temperature • Assay Plate: 96 well U bottom plate (Greiner, 650161) • MultiScreen-PH Plate: 96 well MAPH Filter Plates (Millipore, MAPHNOB50) • Filter Washing Solution: 0.75% H3PO4 • Scintillation Liquid Supermix Liquid Scintillator (PerkinElmer, 1200-439) Controls: • Negative Control (C−): 100 mM EDTA (Ethylenediaminetetraacetic acid), no Inhibitor • Positive Control (C+): no Inhibitor Reaction Buffer: • 20 mM Tris (Tris(hydroxymethyl)aminomethane hydrochloride), pH 7.5 • 10 mM MgCl2 • 1 mM DTT Final Assay Concentrations: • Kinase: Use kinase conc. yielding 10% ATP turn over. • ATP: 1 μM • Adenosine 5′-[-^33P]triphosphate:12.5 μCi/ml (Amersham Biosciences, BF1000) • Substrate: Myelin Basic Protein 10 μM (Invitrogen, 13228-010) Pipetting Sequence: • 1) Add 10 μl 4 fold concentrated Substrate+4 fold concentrated ATP in […] concentrated Reaction Buffer to each well of Assay Plate • 2) Add 10 μl 4 fold concentrated inhibitor in 4% DMSO in H2O to each well except to C− and C+wells • 3) Add 10 μl 4% DMSO in H2O to C− and C+wells • 4) Add 10 μl 500 mM EDTA in H2O to C− wells • 5) Add 10 μl 50 μCi/ml Adenosine 5′-[-^33P]triphosphate in H2O to each well • 6) Add 10 μl 4 fold concentrated kinase in Reaction Buffer to each well • 7) Incubate 1 hr at room temperature • 8) Add 10 μl 50 mM EDTA in H2O to each well except to C− wells • 9) Prepare MAPH plates by adding 200 μl 0.75% H3PO4 to each well • 10) Exhaust 0.75% H3PO4 using Millipore vacuum station • 11) Add 60 μl 0.75% H3PO4 to each well of MAPH Filter Plate • 12) Transfer 30 μl sample per well from Assay Plate to corresponding well of MAPH Filter Plate • 13) Incubate 30 min at room temperature • 14) Wash each well of MAPH Filter Plates 3× with 200 μl 0.75% H3PO4 using Millipore vacuum station. • 15) Add 20 μl Scintillation Liquid to each well of MAPH Filter Plate • 16) Seal MAPH Filter Plate • 17) Store MAPH Filter Plate 30 min in darkness • 18) Quantify radioactivity Results:
(§2) IC50s were calculated for each kinase based on serial dilutions.

[2] = target: CDK1/CycB (Homo sapiens, UniProt P06493); experiment: General kinase assay (Example 80); type: biochemical; details: ATP 1 μM
Chain of CDK1/CycB (P06493 whole entry, species assumed): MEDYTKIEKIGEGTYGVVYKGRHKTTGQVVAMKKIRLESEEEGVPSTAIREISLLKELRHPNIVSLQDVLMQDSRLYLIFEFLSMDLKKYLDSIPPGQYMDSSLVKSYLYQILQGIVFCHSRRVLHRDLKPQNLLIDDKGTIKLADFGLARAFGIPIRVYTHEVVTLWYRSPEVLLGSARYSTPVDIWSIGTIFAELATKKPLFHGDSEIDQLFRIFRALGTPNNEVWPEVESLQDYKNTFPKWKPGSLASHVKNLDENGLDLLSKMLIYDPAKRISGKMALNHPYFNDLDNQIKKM
Chain of CDK1/CycB (P14635 whole entry partner, species assumed): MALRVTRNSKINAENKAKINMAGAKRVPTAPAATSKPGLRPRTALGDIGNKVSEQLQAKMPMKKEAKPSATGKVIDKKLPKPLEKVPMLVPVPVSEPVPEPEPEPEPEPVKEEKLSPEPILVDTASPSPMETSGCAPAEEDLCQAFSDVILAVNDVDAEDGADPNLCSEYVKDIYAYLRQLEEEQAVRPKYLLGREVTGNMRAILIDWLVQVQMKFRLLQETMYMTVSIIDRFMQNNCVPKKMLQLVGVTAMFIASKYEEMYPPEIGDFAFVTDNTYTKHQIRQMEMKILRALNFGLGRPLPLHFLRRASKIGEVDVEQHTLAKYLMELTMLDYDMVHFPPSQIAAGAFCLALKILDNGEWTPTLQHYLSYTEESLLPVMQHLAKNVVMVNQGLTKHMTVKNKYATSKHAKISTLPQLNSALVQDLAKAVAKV
Description: as §1, §2

[3] = target: CDK6/CycD3 (Homo sapiens, UniProt Q00534); experiment: General kinase assay (Example 80); type: biochemical; details: ATP 1 μM
Chain of CDK6/CycD3 (Q00534 whole entry, species assumed): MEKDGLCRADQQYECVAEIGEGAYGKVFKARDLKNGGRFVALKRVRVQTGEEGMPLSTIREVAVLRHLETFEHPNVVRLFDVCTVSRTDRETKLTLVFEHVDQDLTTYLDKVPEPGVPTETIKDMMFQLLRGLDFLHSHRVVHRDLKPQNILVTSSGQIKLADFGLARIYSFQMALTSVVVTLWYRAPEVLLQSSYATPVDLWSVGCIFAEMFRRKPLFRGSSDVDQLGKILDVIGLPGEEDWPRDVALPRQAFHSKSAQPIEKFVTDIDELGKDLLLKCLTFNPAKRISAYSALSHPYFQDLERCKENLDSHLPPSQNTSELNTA
Chain of CDK6/CycD3 (P30281 whole entry partner, species assumed): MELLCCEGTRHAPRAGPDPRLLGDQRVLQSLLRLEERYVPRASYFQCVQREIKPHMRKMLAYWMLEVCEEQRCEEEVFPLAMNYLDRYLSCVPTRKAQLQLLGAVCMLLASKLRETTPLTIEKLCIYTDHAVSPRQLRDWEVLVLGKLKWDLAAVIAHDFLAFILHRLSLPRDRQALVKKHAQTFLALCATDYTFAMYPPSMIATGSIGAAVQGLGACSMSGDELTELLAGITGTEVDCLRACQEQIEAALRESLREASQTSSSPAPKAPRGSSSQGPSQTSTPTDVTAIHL
Description: as §1, §2

[4] = target: T1, CDK2/CycA (Homo sapiens, UniProt P24941); experiment: General kinase assay (Example 80); type: biochemical; details: ATP 1 μM
T1 construct: purchased ProQinase (Freiburg, Germany)
Description: (§3) Kinase assays determining CDK2/CyclinA and CDK5/p35 activity were performed as described by the manufacturer's recommendations (ProQinase (Freiburg, Germany) for CDK2/CyclinA and Upstate for CDK5/p35).
as §1, §2

[5] = target: T2, CDK5/p35 (Homo sapiens, UniProt Q00535); experiment: General kinase assay (Example 80); type: biochemical; details: ATP 1 μM
T2 construct: purchased Upstate
T2 sequence (Q00535 whole entry): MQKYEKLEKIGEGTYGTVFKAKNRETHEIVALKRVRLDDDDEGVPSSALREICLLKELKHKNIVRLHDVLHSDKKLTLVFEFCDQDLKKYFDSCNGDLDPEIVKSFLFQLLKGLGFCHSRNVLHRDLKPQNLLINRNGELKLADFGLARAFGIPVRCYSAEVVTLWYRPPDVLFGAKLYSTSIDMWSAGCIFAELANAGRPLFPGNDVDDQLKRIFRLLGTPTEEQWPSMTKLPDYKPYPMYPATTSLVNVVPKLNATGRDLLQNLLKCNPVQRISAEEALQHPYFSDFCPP
T2 sequence (Q15078 whole entry partner): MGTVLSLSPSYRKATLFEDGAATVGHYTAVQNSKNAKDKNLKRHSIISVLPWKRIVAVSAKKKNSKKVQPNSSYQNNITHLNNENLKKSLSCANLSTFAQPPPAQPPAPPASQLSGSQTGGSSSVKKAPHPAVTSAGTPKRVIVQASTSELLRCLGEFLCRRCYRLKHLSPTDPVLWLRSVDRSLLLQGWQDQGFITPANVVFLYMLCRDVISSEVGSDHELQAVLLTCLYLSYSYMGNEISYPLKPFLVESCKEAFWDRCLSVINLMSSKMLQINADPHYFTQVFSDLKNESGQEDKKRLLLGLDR
Description: as §3, §1, §2

[6] = system: U373-MAGI-CCR5E; experiment: Growth assay using Alamar Blue; type: cell-based; details: read-out: IC50 against cell line U373-MAGI-CCR5E
Description: (§4) Cells were seeded in 384-well plates (white, Greiner: 781080) at a density of […] cells per well in medium (RPMI+10% FCS).
(§5) Cells were incubated in 25 μl medium/well and were grown over night at 37° C., 6% CO2. On the following day compounds were added in DMSO in serial fold dilutions in fresh medium. Negative control wells were incubated without cells. Positive control wells were incubated with cells but without inhibitors (DMSO only). These wells served as data points to determine relative growth (given in % of the DMSO control [=100%]). The cell number was determined by addition of 5 μL Alamar Blue™ (Biosource DAL1100) to each well. Fluorescence was measures with an Analyst GT machine (Molecular Devices) at an excitation wavelength of 560 nm and an emission wavelength of 590 nm.
(§6) The following cell lines were used: A2780 (ECACC order number 93112519; human ovarian carcinoma; Semin Oncol (1984) 11:285; Cancer Res (1987) 47:414), B16F1 (ATCC order number CRL-6323; melanoma; Nat. New Biol. 242: 148-149, 1973); HCT116 (ATCC order number CCL-247; Colorectal carcinoma; Cancer Res (1981) 41:1751; Cancer (1995) 76:201), HT29 (ATTC order number HTB-38; colorectal adenocarcinoma; J. Biol. Chem. 271: 9490-9496, 1996) HepG2 (ATCC order number HB-8065; hepatocellular carcinoma; J. Biol. Chem. 271: 10073-10078, 1996), J774 (ATCC order number TIB-67; reticulum cell sarcoma; J. Biol. Chem. 271: 18431-18436, 1996); MCF7 (ATCC order number HTB-22; Breast carcinoma; J Natl Cancer Inst (1973) 51:1409; Cancer Res (1993) 53:5193), PM1 (obtainable from the National Institute of Allergy and Infectious Diseases; Division of AIDS via the NIH AIDS Research & Reference Reagent Program; Lusso P et al (1995), J Virol 69: 3712-3720) and U373-MAGI-CCR5 (obtainable from the National Institute of Allergy and Infectious Diseases; Division of AIDS via the NIH AIDS Research & Reference Reagent Program; Kensinger R D et al (2004), Antimicrob Agents Chemother 48: 1614-1623).
(§7) IC50s were calculated for each cell line based on serial dilutions.

[7] = system: J774; experiment: Growth assay using Alamar Blue; type: cell-based; details: Mus musculus, read-out: IC50 against cell line J774
Description: as §4, §5, §6, §7

[8] = system: B16F1; experiment: Growth assay using Alamar Blue; type: cell-based; details: Mus musculus, B16-F1, read-out: IC50 against cell line B16F1
Description: as §4, §5, §6, §7

[9] = system: HT29; experiment: Growth assay using Alamar Blue; type: cell-based; details: Homo sapiens, HT-29, read-out: IC50 against cell line HT29
Description: as §4, §5, §6, §7

[10] = system: HCT116; experiment: Growth assay using Alamar Blue; type: cell-based; details: Homo sapiens, HCT-116, read-out: IC50 against cell line HCT116
Description: as §4, §5, §6, §7

[11] = system: A2780; experiment: Growth assay using Alamar Blue; type: cell-based; details: Homo sapiens, read-out: IC50 against cell line A2780
Description: as §4, §5, §6, §7

[12] = system: PM1; experiment: Growth assay using Alamar Blue; type: cell-based; details: read-out: IC50 against cell line PM1
Description: as §4, §5, §6, §7

[13] = system: MCF7; experiment: Growth assay using Alamar Blue; type: cell-based; details: Homo sapiens, read-out: IC50 against cell line MCF7
Description: as §4, §5, §6, §7

[14] = system: HepG2; experiment: Growth assay using Alamar Blue; type: cell-based; details: Homo sapiens, read-out: IC50 against cell line HepG2
Description: as §4, §5, §6, §7

[15] = system: HBV (HepG2-2.2.15 cells); experiment: HBV replication assay; type: cell-based; details: 6 days
Description: To test the anti-HBV-activity of compounds of the present invention the HBV-producing cell line HepG2-2.2.15 (M. A. Sells, PNAS 1987, 84, 1005-1009) is used. About 1.0×10^4 cells are seeded in 96-well microtiter plates in DMEM medium supplemented with 10% FCS. After incubation at 37° C. in 5% CO2 atmosphere for 24 hours the medium is replaced with fresh medium containing the appropriately diluted compounds of the present invention. 3 days later medium is replaced by freshly prepared compound-containing medium and the cells are incubated for further 3 days. Subsequently 200 μl lysis buffer (50 mM Tris-Cl 7.5; 1 mM EDTA 8.0; 0.5% NP40) per well is added. To remove cell debris and nucleic acids, lysate is centrifuged (15000 rpm, 10 min, 4° C.).
Cellular and viral RNA is removed by addition of 2 μl of RNase. 100 μl of the samples are spotted onto an uncharged nylon membrane pre-wetted with PBS (phosphate-buffered saline) using a 96 well-blotting chamber (MINIfold Dot-Blot, Schleicher&Schüll). […]
The fixed membrane is pre-hybridized in a standard hybridisation buffer (50% formamide, 5×SSPE, 10×Denhards, 1% SDS, 100 μg/ml salmon sperm DNA) for at least 3 hours at 42° C. and hybridised overnight against the labelled HBV-fragment. […] The intensity of the HBV-DNA is quantified using a phosphoimager (Fuji). […] Absorbance is monitored at 570 nm and 600 nm wavelength.

Chain of CDK4/CycD1 (P11802 whole entry, species assumed): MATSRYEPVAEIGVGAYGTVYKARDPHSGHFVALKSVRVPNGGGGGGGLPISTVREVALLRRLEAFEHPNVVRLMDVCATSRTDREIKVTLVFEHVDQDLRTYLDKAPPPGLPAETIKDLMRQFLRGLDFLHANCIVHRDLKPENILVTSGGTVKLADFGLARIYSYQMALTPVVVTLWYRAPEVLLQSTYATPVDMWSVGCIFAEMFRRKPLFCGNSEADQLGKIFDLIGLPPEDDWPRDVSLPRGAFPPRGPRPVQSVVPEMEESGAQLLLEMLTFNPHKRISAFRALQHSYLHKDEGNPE
Chain of CDK4/CycD1 (P24385 whole entry partner, species assumed): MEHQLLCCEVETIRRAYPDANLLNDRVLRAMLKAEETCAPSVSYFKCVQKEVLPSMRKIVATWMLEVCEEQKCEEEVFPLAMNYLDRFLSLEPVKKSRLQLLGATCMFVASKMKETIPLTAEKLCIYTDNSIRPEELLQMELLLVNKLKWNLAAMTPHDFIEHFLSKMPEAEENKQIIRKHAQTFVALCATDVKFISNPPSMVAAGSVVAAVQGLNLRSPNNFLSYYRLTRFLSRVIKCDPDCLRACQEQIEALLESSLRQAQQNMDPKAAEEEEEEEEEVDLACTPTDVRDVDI

IC50 [1] [µM] | IC50 [2] [µM] | IC50 [3] [µM] | IC50 [4] [µM] | IC50 [5] [µM] | IC50 [8] [µM] | IC50 [9] [µM] | IC50 [10] [µM] | IC50 [11] [µM] | IC50 [13] [µM] | IC50 [14] [µM] | Compound | IC50 [6] [µM] | IC50 [7] [µM] | IC50 [12] [µM] | HBV replication (HBV-DNA) [15]
< 10 | < 10 | < 10 | < 10 | < 5 | < 10 | < 5 | < 2 | < 10 | < 10 | < 10 | COc1ccccc1-c1cc(Nc2cccc(CS(N)(=O)=O)c2)ncn1 [Compound 85, C-{3-[6-(2-methoxy-phenyl)-pyrimidin-4-ylamino]-phenyl}-methanesulfonamide] | < 10 | < 10 | < 5 | 
 |  |  |  |  |  |  |  |  |  |  | CN1CC[C@H](c2c(O)cc(O)c3c(=O)cc(-c4ccccc4Cl)oc23)[C@H](O)C1 [flavopiridol] |  |  |  | inhibits replication
